According to publication PMC9506414, “Novel 2,6,9-Trisubstituted Purines as Potent CDK Inhibitors Alleviating Trastuzumab-Resistance of HER2-Positive Breast Cancers” (Pharmaceuticals, 2022):

Experiments:
Experiment in all cases: Kinome-wide inhibition profiling
Assay type in all cases: biochemical
CLK2 = molecular target: T1, CLK2 (Homo sapiens, UniProt P49760)
T1 construct: purchased Reaction Biology Corp
Procedure: (§1) In vitro CDK12/cyclinK assays for all compounds and in vitro kinome-wide inhibition profiling of 30d at 10 μM were performed by a CRO company (Reaction Biology Corp., San Diego, CA, USA).

SYK = molecular target: T2, SYK (Homo sapiens, UniProt P43405)
T2 construct: purchased Reaction Biology Corp
Procedure: as §1

Src = molecular target: T3, Src (Homo sapiens, UniProt P12931)
T3 construct: purchased Reaction Biology Corp
Procedure: as §1

PKA = molecular target: T4, PKA (Homo sapiens, UniProt P17612)
T4 construct: purchased Reaction Biology Corp
Procedure: as §1

CIT = molecular target: T5, CIT (Homo sapiens, UniProt O14578)
T5 construct: purchased Reaction Biology Corp
Procedure: as §1

FER = molecular target: T6, FER (Homo sapiens, UniProt P16591)
T6 construct: purchased Reaction Biology Corp
Procedure: as §1

INSRR = molecular target: T7, INSRR (Homo sapiens, UniProt P14616)
T7 construct: purchased Reaction Biology Corp
Procedure: as §1

PDGFRb = molecular target: T8, PDGFRb (Homo sapiens, UniProt P09619)
T8 construct: purchased Reaction Biology Corp
Procedure: as §1

CLK3 = molecular target: T9, CLK3 (Homo sapiens, UniProt P49761)
T9 construct: purchased Reaction Biology Corp
Procedure: as §1

DYRK2 = molecular target: T10, DYRK2 (Homo sapiens, UniProt Q92630)
T10 construct: purchased Reaction Biology Corp
Procedure: as §1

TSSK3 = molecular target: T11, TSSK3 (Homo sapiens, UniProt Q96PN8)
T11 construct: purchased Reaction Biology Corp
Procedure: as §1

NIM1 = molecular target: T12, NIM1 (Homo sapiens, UniProt Q8IY84)
T12 construct: purchased Reaction Biology Corp
Procedure: as §1

ICK = molecular target: T13, ICK (Homo sapiens, UniProt Q9UPZ9)
T13 construct: purchased Reaction Biology Corp
Procedure: as §1

CSNK1A1 = molecular target: T14, CSNK1A1 (Homo sapiens, UniProt P48729)
T14 construct: purchased Reaction Biology Corp
Procedure: as §1

EPHB3 = molecular target: T15, EPHB3 (Homo sapiens, UniProt P54753)
T15 construct: purchased Reaction Biology Corp
Procedure: as §1

ZAK = molecular target: T16, ZAK (Homo sapiens, UniProt Q9NYL2)
T16 construct: purchased Reaction Biology Corp
Procedure: as §1

TSSK6 = molecular target: T17, TSSK6 (Homo sapiens, UniProt Q9BXA6)
T17 construct: purchased Reaction Biology Corp
Procedure: as §1

SIK2 = molecular target: T18, SIK2 (Homo sapiens, UniProt Q9H0K1)
T18 construct: purchased Reaction Biology Corp
Procedure: as §1

BMPR1A = molecular target: T19, BMPR1A (Homo sapiens, UniProt P36894)
T19 construct: purchased Reaction Biology Corp
Procedure: as §1

EPHA4 = molecular target: T20, EPHA4 (Homo sapiens, UniProt P54764)
T20 construct: purchased Reaction Biology Corp
Procedure: as §1

STK16 = molecular target: T21, STK16 (Homo sapiens, UniProt O75716)
T21 construct: purchased Reaction Biology Corp
Procedure: as §1

CSNK1G3 = molecular target: T22, CSNK1G3 (Homo sapiens, UniProt Q9Y6M4)
T22 construct: purchased Reaction Biology Corp
Procedure: as §1

FGFR3 = molecular target: T23, FGFR3 (Homo sapiens, UniProt P22607)
T23 construct: purchased Reaction Biology Corp
Procedure: as §1

TSSK2 = molecular target: T24, TSSK2 (Homo sapiens, UniProt Q96PF2)
T24 construct: purchased Reaction Biology Corp
Procedure: as §1

FLT4 = molecular target: T25, FLT4 (Homo sapiens, UniProt P35916)
T25 construct: purchased Reaction Biology Corp
Procedure: as §1

PKN3 = molecular target: T26, PKN3 (Homo sapiens, UniProt Q6P5Z2)
T26 construct: purchased Reaction Biology Corp
Procedure: as §1

ARK5 = molecular target: T27, ARK5 (Homo sapiens, UniProt O60285)
T27 construct: purchased Reaction Biology Corp
Procedure: as §1

GRK5 = molecular target: T28, GRK5 (Homo sapiens, UniProt P34947)
T28 construct: purchased Reaction Biology Corp
Procedure: as §1

NDR2 = molecular target: T29, NDR2 (Homo sapiens, UniProt Q9Y2H1)
T29 construct: purchased Reaction Biology Corp
Procedure: as §1

MST1 = molecular target: T30, MST1 (Homo sapiens, UniProt Q13043)
T30 construct: purchased Reaction Biology Corp
Procedure: as §1

PKCb2 = molecular target: T31, PKCb2 (Homo sapiens, UniProt P05771)
T31 construct: purchased Reaction Biology Corp
Procedure: as §1

PFTK1 = molecular target: T32, PFTK1 (Homo sapiens, UniProt O94921)
T32 construct: purchased Reaction Biology Corp
Procedure: as §1

BMPR2 = molecular target: T33, BMPR2 (Homo sapiens, UniProt Q13873)
T33 construct: purchased Reaction Biology Corp
Procedure: as §1

EPHA1 = molecular target: T34, EPHA1 (Homo sapiens, UniProt P21709)
T34 construct: purchased Reaction Biology Corp
Procedure: as §1

DYRK1B = molecular target: T35, DYRK1B (Homo sapiens, UniProt Q9Y463)
T35 construct: purchased Reaction Biology Corp
Procedure: as §1

CHEK1 = molecular target: T36, CHEK1 (Homo sapiens, UniProt O14757)
T36 construct: purchased Reaction Biology Corp
Procedure: as §1

NEK2 = molecular target: T37, NEK2 (Homo sapiens, UniProt P51955)
T37 construct: purchased Reaction Biology Corp
Procedure: as §1

GSK3b = molecular target: T38, GSK3b (Homo sapiens, UniProt P49841)
T38 construct: purchased Reaction Biology Corp
Procedure: as §1

SRPK2 = molecular target: T39, SRPK2 (Homo sapiens, UniProt P78362)
T39 construct: purchased Reaction Biology Corp
Procedure: as §1

PIM3 = molecular target: T40, PIM3 (Homo sapiens, UniProt Q86V86)
T40 construct: purchased Reaction Biology Corp
Procedure: as §1

CSNK1A1L = molecular target: T41, CSNK1A1L (Homo sapiens, UniProt Q8N752)
T41 construct: purchased Reaction Biology Corp
Procedure: as §1

TRKC = molecular target: T42, TRKC (Homo sapiens, UniProt Q16288)
T42 construct: purchased Reaction Biology Corp
Procedure: as §1

MLK3 = molecular target: T43, MLK3 (Homo sapiens, UniProt Q16584)
T43 construct: purchased Reaction Biology Corp
Procedure: as §1

PHKg2 = molecular target: T44, PHKg2 (Homo sapiens, UniProt P15735)
T44 construct: purchased Reaction Biology Corp
Procedure: as §1

T35 sequence (Q9Y463 whole entry): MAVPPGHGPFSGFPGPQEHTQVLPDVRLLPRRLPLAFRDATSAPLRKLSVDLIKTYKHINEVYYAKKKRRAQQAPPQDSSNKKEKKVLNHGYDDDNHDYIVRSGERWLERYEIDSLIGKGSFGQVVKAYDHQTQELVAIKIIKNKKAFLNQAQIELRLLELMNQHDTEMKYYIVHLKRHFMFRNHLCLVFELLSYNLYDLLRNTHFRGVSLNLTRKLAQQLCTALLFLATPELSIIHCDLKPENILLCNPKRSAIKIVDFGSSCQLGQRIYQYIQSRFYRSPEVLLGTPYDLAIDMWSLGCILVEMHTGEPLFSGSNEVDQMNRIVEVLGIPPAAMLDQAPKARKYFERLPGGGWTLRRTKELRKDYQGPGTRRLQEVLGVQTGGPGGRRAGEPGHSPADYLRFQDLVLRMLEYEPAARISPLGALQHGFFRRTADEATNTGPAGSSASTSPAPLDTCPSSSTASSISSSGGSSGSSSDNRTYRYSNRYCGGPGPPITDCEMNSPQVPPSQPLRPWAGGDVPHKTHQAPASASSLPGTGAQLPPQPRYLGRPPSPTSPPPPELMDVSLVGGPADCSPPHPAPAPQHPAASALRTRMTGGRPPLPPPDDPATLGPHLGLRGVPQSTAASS
T20 sequence (P54764 20-986): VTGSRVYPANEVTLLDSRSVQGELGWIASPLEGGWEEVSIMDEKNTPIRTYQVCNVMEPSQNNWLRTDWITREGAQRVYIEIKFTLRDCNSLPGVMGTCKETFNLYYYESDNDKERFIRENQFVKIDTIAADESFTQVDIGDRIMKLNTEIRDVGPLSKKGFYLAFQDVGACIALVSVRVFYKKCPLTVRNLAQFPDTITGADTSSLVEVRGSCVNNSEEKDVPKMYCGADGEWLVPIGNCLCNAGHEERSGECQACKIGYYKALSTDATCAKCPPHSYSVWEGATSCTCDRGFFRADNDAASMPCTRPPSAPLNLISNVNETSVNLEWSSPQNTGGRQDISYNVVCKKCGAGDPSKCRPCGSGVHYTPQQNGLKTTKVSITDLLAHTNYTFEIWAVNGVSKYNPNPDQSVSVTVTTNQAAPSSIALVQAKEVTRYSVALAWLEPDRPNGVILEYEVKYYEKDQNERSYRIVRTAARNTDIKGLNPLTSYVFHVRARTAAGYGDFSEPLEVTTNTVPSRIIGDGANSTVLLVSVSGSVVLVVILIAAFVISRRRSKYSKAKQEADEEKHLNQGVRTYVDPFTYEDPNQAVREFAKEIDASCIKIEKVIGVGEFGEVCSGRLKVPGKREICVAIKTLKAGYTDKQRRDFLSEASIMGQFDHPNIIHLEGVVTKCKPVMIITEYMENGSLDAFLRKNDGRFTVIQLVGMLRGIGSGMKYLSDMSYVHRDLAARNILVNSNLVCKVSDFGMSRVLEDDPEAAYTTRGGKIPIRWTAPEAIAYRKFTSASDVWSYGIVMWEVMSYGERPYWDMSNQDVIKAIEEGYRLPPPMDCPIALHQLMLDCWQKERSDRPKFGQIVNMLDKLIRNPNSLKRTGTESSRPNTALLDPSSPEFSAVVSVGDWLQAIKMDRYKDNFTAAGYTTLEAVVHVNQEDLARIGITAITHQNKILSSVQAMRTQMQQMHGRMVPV
T22 sequence (Q9Y6M4 whole entry): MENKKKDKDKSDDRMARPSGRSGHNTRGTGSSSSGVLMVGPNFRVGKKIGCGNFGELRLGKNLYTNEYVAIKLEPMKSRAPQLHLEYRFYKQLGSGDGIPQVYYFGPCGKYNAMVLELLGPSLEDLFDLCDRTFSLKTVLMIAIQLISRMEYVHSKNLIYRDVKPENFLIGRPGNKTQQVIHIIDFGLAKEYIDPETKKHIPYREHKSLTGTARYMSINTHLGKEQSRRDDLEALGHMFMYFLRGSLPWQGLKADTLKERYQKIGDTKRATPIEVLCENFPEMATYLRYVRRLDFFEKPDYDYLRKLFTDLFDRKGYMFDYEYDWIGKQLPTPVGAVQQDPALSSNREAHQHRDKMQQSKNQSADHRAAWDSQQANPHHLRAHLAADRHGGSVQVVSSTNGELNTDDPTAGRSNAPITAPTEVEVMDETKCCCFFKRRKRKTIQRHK
T9 sequence (P49761 whole entry): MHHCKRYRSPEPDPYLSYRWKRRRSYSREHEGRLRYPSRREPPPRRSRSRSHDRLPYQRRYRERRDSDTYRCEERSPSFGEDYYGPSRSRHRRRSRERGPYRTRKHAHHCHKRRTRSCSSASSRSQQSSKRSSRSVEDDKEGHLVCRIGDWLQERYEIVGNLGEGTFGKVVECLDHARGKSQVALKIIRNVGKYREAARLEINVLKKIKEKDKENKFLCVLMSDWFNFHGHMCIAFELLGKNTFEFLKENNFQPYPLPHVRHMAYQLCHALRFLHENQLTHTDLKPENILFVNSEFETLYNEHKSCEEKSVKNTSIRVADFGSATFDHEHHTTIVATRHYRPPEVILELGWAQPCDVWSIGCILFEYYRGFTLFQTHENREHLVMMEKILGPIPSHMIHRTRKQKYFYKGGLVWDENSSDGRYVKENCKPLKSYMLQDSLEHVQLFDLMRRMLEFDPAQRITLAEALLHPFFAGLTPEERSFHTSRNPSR
T42 sequence (Q16288 32-839): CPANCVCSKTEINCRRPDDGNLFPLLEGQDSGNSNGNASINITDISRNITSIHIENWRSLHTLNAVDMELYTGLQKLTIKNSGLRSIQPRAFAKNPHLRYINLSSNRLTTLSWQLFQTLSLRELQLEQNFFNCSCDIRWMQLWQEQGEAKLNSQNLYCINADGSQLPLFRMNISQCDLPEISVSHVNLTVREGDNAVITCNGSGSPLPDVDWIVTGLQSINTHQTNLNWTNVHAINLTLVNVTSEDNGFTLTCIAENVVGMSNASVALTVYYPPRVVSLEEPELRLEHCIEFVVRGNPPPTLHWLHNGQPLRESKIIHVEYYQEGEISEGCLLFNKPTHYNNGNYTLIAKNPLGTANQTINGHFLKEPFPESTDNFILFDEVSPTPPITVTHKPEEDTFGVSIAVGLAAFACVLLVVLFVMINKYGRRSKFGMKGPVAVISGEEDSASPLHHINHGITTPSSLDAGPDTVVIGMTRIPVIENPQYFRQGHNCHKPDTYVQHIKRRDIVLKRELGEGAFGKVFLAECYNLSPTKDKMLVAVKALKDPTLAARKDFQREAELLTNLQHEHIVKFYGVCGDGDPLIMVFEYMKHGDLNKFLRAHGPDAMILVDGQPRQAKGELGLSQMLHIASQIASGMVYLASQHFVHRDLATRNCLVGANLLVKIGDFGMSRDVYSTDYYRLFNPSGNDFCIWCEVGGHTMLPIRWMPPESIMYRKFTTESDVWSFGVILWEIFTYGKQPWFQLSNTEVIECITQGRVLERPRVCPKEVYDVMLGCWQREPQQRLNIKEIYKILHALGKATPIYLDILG
T6 sequence (P16591 whole entry): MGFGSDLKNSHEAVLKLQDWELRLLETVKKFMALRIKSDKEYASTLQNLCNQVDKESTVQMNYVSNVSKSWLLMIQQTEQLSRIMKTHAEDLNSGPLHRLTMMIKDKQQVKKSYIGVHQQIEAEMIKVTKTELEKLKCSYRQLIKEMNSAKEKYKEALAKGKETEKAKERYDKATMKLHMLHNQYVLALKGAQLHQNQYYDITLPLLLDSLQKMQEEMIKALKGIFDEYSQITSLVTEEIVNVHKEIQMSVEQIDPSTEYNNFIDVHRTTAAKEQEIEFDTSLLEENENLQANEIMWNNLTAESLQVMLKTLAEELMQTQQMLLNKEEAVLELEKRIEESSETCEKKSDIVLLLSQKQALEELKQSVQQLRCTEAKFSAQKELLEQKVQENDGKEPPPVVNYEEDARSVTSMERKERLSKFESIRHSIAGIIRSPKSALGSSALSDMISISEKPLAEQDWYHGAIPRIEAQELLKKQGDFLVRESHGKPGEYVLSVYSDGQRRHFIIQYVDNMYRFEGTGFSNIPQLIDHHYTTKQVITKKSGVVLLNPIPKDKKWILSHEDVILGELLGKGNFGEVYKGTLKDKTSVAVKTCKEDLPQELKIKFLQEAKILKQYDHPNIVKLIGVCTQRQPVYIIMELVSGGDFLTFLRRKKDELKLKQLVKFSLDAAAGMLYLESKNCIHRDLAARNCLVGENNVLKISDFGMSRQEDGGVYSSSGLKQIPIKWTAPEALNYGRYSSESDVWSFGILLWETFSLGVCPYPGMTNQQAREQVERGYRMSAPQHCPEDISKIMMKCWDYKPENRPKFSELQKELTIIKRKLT
T43 sequence (Q16584 whole entry): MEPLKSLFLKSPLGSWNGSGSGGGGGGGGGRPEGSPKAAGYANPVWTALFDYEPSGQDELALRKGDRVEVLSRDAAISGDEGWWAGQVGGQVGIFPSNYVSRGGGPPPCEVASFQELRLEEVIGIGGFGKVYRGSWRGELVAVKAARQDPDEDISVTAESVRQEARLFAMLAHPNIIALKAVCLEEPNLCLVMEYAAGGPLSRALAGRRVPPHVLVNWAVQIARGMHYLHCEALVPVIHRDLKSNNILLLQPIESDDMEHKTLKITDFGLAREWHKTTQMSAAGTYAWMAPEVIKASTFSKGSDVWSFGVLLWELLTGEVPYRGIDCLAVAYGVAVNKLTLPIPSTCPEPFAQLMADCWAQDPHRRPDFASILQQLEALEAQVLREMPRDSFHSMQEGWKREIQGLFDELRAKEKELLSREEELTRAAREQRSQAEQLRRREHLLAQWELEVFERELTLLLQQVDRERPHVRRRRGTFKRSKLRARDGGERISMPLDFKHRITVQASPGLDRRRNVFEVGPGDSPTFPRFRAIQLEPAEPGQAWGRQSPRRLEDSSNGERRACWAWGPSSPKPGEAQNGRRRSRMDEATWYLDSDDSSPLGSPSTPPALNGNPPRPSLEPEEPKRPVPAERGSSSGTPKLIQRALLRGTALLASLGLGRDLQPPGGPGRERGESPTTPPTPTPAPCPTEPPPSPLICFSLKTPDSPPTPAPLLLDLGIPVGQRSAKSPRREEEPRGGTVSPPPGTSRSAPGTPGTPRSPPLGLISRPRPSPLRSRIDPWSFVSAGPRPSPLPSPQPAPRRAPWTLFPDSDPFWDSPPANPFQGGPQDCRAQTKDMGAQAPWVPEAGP

## CCn1cnc2c(NCc3ccc(-c4ccccn4)nc3)nc(-c3ccc(N)nc3)nc21 [Compound 30d, N-([2,2′-Bipyridin]-5-ylmethyl)-2-(6-aminopyridin-3-yl)-9-ethyl-9H-purin-6-amine]
CLK2
  remaining activity at 10 µM: 11.7%
SYK
  remaining activity at 10 µM: 48.4%
Src
  remaining activity at 10 µM: 60.1%
PKA
  remaining activity at 10 µM: 93.1%
CIT
  remaining activity at 10 µM: 97.9%
FER
  remaining activity at 10 µM: 52.3%
INSRR
  remaining activity at 10 µM: 31.1%
PDGFRb
  remaining activity at 10 µM: 34.7%
CLK3
  remaining activity at 10 µM: 94.6%
DYRK2
  remaining activity at 10 µM: 22.3%
TSSK3
  remaining activity at 10 µM: 91.5%
NIM1
  remaining activity at 10 µM: 76%
ICK
  remaining activity at 10 µM: 39.6%
CSNK1A1
  remaining activity at 10 µM: 26.5%
EPHB3
  remaining activity at 10 µM: 66%
ZAK
  remaining activity at 10 µM: 97.5%
TSSK6
  remaining activity at 10 µM: 86.9%
SIK2
  remaining activity at 10 µM: 35.9%
BMPR1A
  remaining activity at 10 µM: 126%
EPHA4
  inhibition at 10 µM: > 95%
  remaining activity at 10 µM: 3.6%
STK16
  remaining activity at 10 µM: 35.9%
CSNK1G3
  remaining activity at 10 µM: 24.4%
FGFR3
  remaining activity at 10 µM: 30.6%
TSSK2
  remaining activity at 10 µM: 85.3%
FLT4
  remaining activity at 10 µM: 10%
PKN3
  remaining activity at 10 µM: 81.6%
ARK5
  remaining activity at 10 µM: 20.8%
GRK5
  remaining activity at 10 µM: 91.5%
NDR2
  remaining activity at 10 µM: 36.9%
MST1
  remaining activity at 10 µM: 62.2%
PKCb2
  remaining activity at 10 µM: 39.6%
PFTK1
  remaining activity at 10 µM: 14%
BMPR2
  remaining activity at 10 µM: 52.4%
EPHA1
  remaining activity at 10 µM: 13.2%
DYRK1B
  inhibition at 10 µM: > 95%
  remaining activity at 10 µM: 3.2%
CHEK1
  remaining activity at 10 µM: 79.5%
NEK2
  remaining activity at 10 µM: 91.1%
GSK3b
  remaining activity at 10 µM: 5.8%
SRPK2
  remaining activity at 10 µM: 60.7%
PIM3
  remaining activity at 10 µM: 86.7%
CSNK1A1L
  remaining activity at 10 µM: 53.1%
TRKC
  remaining activity at 10 µM: 54.9%
MLK3
  remaining activity at 10 µM: 51.4%
PHKg2
  remaining activity at 10 µM: 56.9%
